Assay results published in US4851416A, “Berban derivatives as α2 -adrenergic antagonists” (priority 1985, dated 1989).
Counter-ions that a name gives are not always drawn. Like-named read-outs stand apart in the source and are kept apart here. Values belong to the compound of their own block, whether it stands above or below them.

Experiments:
[1] = target: T1, α2-receptors of the rat vas deferens (Rattus norvegicus, UniProt P22909); test: Antagonism of α2-receptors of the rat vas deferens (xylazine as agonist); format: biochemical; conditions: for Kb: read-out: pA2 (α2, rat vas deferens) (converted)
T1 construct: from tissue; host or cells: rat vas deferens
T1 sequence (P22909 1-465): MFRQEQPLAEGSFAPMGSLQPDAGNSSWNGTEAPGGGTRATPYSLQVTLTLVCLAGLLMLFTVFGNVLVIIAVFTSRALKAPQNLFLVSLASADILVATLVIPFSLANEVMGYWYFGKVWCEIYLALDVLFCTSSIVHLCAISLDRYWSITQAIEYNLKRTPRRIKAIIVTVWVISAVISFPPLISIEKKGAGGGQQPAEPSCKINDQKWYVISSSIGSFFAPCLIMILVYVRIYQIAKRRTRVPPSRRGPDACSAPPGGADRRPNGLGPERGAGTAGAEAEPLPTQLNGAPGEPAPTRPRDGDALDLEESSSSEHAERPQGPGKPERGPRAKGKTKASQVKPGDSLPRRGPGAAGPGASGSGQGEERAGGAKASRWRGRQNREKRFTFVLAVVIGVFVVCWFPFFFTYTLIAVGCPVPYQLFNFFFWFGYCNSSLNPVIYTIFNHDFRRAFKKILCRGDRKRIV
Protocol: The action of known α-adrenergic receptor-blocking agents and the
formula (I) on the α2 -receptors of the rat vas deferens
(xylazine as agonist) and of the
The tissues were suspended at 37° C. in an organ bath containing 5 ml of Krebs solution. […] Both the compounds of formula (I) and the reference substances were tested against xylazine (on the rat vas daferens) as well as against […] (on the longitudinal smooth muscle preparation from the guinea pig ileum). The amplitude of the contraction response caused by the stimulation is inhibited on the α2 -adrenergic receptors by xylazine or norepinephrine.

[2] = target: T2, α1-receptors of the rat vas deferens (Rattus norvegicus, UniProt P43140); test: Antagonism of α1-receptors of the rat vas deferens (phenylephrine as agonist); format: biochemical; parameters: key to nature of the competition (α1, rat vas deferens): NC means non-competitive; C means competitive; conditions: for Kb: compounds of formula (I) as hydrochlorides, read-out: pA2 (α1, rat vas deferens) (converted)
T2 construct: from tissue; host or cells: rat vas deferens
T2 sequence (P43140 1-466): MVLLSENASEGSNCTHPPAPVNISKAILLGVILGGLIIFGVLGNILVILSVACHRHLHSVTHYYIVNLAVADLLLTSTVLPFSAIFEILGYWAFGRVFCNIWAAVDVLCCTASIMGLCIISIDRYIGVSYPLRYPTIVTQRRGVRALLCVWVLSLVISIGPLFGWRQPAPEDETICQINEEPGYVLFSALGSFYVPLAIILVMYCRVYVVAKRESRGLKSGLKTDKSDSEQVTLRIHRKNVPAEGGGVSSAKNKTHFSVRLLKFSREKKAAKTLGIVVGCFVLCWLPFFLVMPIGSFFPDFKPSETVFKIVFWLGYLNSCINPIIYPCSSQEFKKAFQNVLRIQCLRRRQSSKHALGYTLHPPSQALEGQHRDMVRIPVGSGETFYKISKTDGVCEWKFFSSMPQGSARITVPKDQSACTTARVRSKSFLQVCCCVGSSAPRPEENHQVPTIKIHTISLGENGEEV
Protocol: Phenylephrine was used as agonist on the α1 -adrenergic receptors whereby both the rat vas deferens and the pulmonary artery of the rabbit were contracted. […] The pA2 value was determined by using the method of Arunlakshana and Schield (1959) cited above. The nature of the competition is also given (NC means non-competitive, C means competitive).

[3] = target: α1-receptors of the pulmonary artery of rabbit; test: Antagonism of α1-receptors of the pulmonary artery of rabbit (norepinephrine as agonist); format: biochemical; conditions: compounds of formula (I) as hydrochlorides
Description: On the α1 -receptors of the pulmonary artery, a contraction is elicited by norepinephrine which is inhibited by antagonists.

[4] = tested on: dopamine turnover in the striatum; test: Dopamine turnover in the striatum after α-methyl-p-tyrosine; format: in vivo, rat; conditions: for Kb (fractional rate constant) / Tt (catecholamine turnover time) / TRCA (catecholamine turnover rate): DA, with α-MPT; for TRCA (catecholamine turnover rate): ** p 0.01 vs control; for DA content: α-MPT 320 mg/kg i.p. pre-treatment, 4 animals
Protocol: (§1) Male rates with 100 g of body-weight were intraperitoneally pre-treated (at minute 0) with 320 mg/kg of α-methyl-p-tyrosine. […] After centrifuging, the norepinephrine content (frontal cortex) or the dopamine content (striatum) of the supernatant, respectively, was determined by using the method of the […] liquid chromatography-electrochemical detection. […] The significance level of the difference related to the control group was also determined (** p 0.01; *** p 0.001).

[5] = tested on: norepinephrine turnover in the frontal cortex; test: Norepinephrine turnover in the frontal cortex after α-methyl-p-tyrosine; format: in vivo, rat; conditions: for Kb (fractional rate constant) / Tt (catecholamine turnover time) / TRCA (catecholamine turnover rate): NE, with α-MPT; for TRCA (catecholamine turnover rate): ** p 0.01, *** p 0.001 vs control; for NE content: α-MPT 320 mg/kg i.p. pre-treatment, 4 animals
Protocol: as §1

[6] = target: α1-receptors of the pulmonary artery of rabbit; test: Antagonism of α1-receptors of the pulmonary artery of rabbit (phenylephrine as agonist); format: biochemical; conditions: compounds of formula (I) as hydrochlorides
Protocol: The action of known α-adrenergic receptor-blocking
on the α1 -receptors of the rat vas deferens and of
the pulmonary artery of rabbit against phenylephrine
Phenylephrine was used as agonist on the α1 -adrenergic receptors whereby both the rat vas deferens and the pulmonary artery of the rabbit were contracted. This concractile effect was inhibited by antagonists. The pA2 value was determined by using the method of Arunlakshana and Schield (1959) cited above. The nature of the competition is also given (NC means non-competitive, C means competitive).

[7] = tested on: α2-receptors (vs α1-receptors) of the rat vas deferens; test: Selectivity against the α2-receptors on the rat vas deferens (from Tables 1 and 2); format: biochemical; conditions: calculated from Tables 1 and 2, hydrochlorides
Description: The pA2 values concerning the α1 -receptor of the antagonists were divided by the pA2 values concerning the α2 -receptor of the antagonists (α1 /α2).

[8] = xylazine as agonist, compounds of formula (I) as hydrochlorides, (n) in brackets

Structure (SMILES): O[C@H]1CC[C@H]2CN3CCc4cc5c(cc4[C@H]3C[C@H]2C1)OCO5 (relative stereo) [Example 25, 14β-hydroxy-7,8-methylenedioxyalloberban]
- nature of the competition (α1, rat vas deferens) [2]: NC
- Kb [2]: 14100 nM
- pA2 (α1, pulmonary artery of rabbit) [3]: 4.83 ± 0.52

Structure (SMILES): COC(=O)C1C(O)CCC2CN3CCc4cc5c(cc4C3CC21)OCO5 (stereo not drawn) [Example 1, methyl 14-β-hydroxy-7,8-methylenedioxy-alloberban-13-carboxylate]
- nature of the competition (α1, rat vas deferens) [2]: NC
- Kb [2]: 661 nM
- pA2 (α1, pulmonary artery of rabbit) [6]: 4.68 ± 0.27

Structure (SMILES): CCOC(=O)C1C(O)CCC2CN3CCc4cc5c(cc4C3CC21)OCO5 (stereo not drawn) [Example 17, ethyl 14β-hydroxy-7,8-methylenedioxyalloberban-13-carboxylate]
- nature of the competition (α1, rat vas deferens) [2]: NC
- Kb [2]: 3090 nM

Structure (SMILES): c1ccc2c(c1)OCC(C1=NCCN1)O2 (centres unmarked) [Idazoxan, reference compound]
- nature of the competition (α1, rat vas deferens) [2]: NC
- Kb [2]: 1000 nM
- pA2 (α1, pulmonary artery of rabbit) [3]: 6.03 ± 0.11

Structure (SMILES): COC(=O)[C@@H]1[C@H]2C[C@H]3c4[nH]c5ccccc5c4CCN3C[C@@H]2CC[C@@H]1O [Yohimbine, reference compound]
- nature of the competition (α1, rat vas deferens) [2]: NC
- pA2 (α1, pulmonary artery of rabbit) [3]: 5.81 ± 0.37
- pA2 (α1, pulmonary artery of rabbit) [6]: 5.59 ± 0.4
- Kb (fractional rate constant) [4]: 0.906 h⁻¹
- Tt (catecholamine turnover time) [4]: 1.10 h
- TRCA (catecholamine turnover rate) [4]: 58.40 ± 5.47 nmole/g, h^-1
- DA content [4]: 64.46 ± 6.04 nmol/g
- Kb (fractional rate constant) [5]: 0.880 h⁻¹
- Tt (catecholamine turnover time) [5]: 1.13 h
- TRCA (catecholamine turnover rate) [5]: 0.87 ± 0.06 nmole/g, h^-1
- NE content [5]: 0.99 ± 0.07 nmol/g

Further lines, with some results ahead:

- Relative activity, vas deferens [1]: 0.01
- pA2 (α2, rat vas deferens) [1, 8]: 5.74 ± 0.11
Structure (SMILES): Oc1cc2c(cc1O)[C@H]1C[C@H]3C[C@@H](O)CC[C@H]3CN1CC2 (relative stereo) [As hydrobromide]

- Relative activity, vas deferens [1]: 0.05
- Kb [1, 8]: 380 nM
Structure (SMILES): CCOc1cc2c(cc1OCC)[C@H]1C[C@H]3C[C@@H](O)CC[C@H]3CN1CC2 (relative stereo) [Example 11, 14β-hydroxy-7,8-diethoxyalloberban]

- nature of the competition (α1, rat vas deferens) [2]: NC
- Kb [2]: 11200 nM
- pA2 (α1, pulmonary artery of rabbit) [3]: 5.29 ± 0.20
Structure (SMILES): O[C@@H]1CC[C@H]2CN3CCc4cc5c(cc4[C@H]3C[C@H]2C1)OCO5 (relative stereo) [Example 26, 14α-hydroxy-7,8-methylenedioxyalloberban]
- Kb (fractional rate constant) [4]: 0.776 h⁻¹
- Tt (catecholamine turnover time) [4]: 1.28 h
- TRCA (catecholamine turnover rate) [4]: 37.27 ± 3.62 nmole/g, h^-1
- DA content [4]: 48.03 ± 4.66 nmol/g
- Kb (fractional rate constant) [5]: 0.740 h⁻¹
- Tt (catecholamine turnover time) [5]: 1.35 h
- TRCA (catecholamine turnover rate) [5]: 0.64 ± 0.03 nmole/g, h^-1
- NE content [5]: 0.87 ± 0.05 nmol/g

- pA2 (α1, pulmonary artery of rabbit) [6]: 4.61 ± 0.2
Structure (SMILES): COC(=O)C1C(O)CCC2CN3CCc4cc5c(cc4C3CC21)OCO5 (stereo not drawn) [Example 6, methyl 14α-hydroxy-7,8-methylenedioxyberban-13-carboxylate]

- nature of the competition (α1, rat vas deferens) [2]: NC
- Kb [2]: 52.5 nM
- Kb [1, 8]: 145 nM
- Relative activity, vas deferens ([1]; α2-inhibiting effect relative to yohimbine = 1.0): 0.13
- Selectivity α1/α2 [7]: 0.36
Structure (SMILES): CCn1ccnc1CC1COc2ccccc2O1 (centres unmarked) [Imiloxan, reference compound]

- nature of the competition (α1, rat vas deferens) [2]: C
Structure (SMILES): Cc1ccc(N(CC2=NCCN2)c2cccc(O)c2)cc1 [Phentolamine, reference compound]
